Measured values reported in ChEMBL document CHEMBL4385643, “Design of a brain-penetrant CDK4/6 inhibitor for glioblastoma” (Bioorg Med Chem Lett, 2019).

Legend:
[1] = target: Ribosomal protein S6 kinase alpha-2 (Homo sapiens) (UniProt Q15349); assay: Inhibition of recombinant full length human GST-tagged RSK3 expressed in insect expression system at 0.1 uM using serine/threonine-6 peptide as substrate incubated for 60 mins by Z'-LYTE assay relative to control
[2] = target: Fibroblast growth factor receptor 3 (Homo sapiens) (UniProt P22607); assay: Inhibition of recombinant human His-tagged FGFR3 catalytic domain (399 to 806 residues) expressed in baculovirus expression system at 0.1 uM using tyrosine-4 peptide as substrate incubated for 60 mins by Z'-LYTE assay relative to control
[3] = target: Mitogen-activated protein kinase 14 (Homo sapiens) (UniProt Q16539); assay: Inhibition of recombinant full length human GST-tagged p38alpha expressed in Escherichia coli expression system at 0.1 uM using serine/threonine-15 peptide as substrate incubated for 60 mins by Z'-LYTE assay relative to control
[4] = target: Ephrin type-B receptor 1 (Homo sapiens) (UniProt P54762); assay: Inhibition of recombinant human GST-tagged EPHB1 catalytic domain (613 to 881 residues) expressed in baculovirus expression system at 0.1 uM using tyrosine-2 peptide as substrate incubated for 60 mins by Z'-LYTE assay relative to control
[5] = target: Tyrosine-protein kinase CSK (Homo sapiens) (UniProt P41240); assay: Inhibition of recombinant full length human His-tagged CSK expressed in Escherichia coli expression system at 0.1 uM using tyrosine-2 peptide as substrate incubated for 60 mins by Z'-LYTE assay relative to control
[6] = target: Activin receptor type-1B (Homo sapiens) (UniProt P36896); assay: Inhibition of recombinant human GST-tagged ACVR1B catalytic domain (150 to 505 residues) expressed in baculovirus expression system at 0.1 uM using serine/threonine-16 peptide as substrate incubated for 60 mins by Z'-LYTE assay relative to control
[7] = target: Serine/threonine-protein kinase 3 (Homo sapiens) (UniProt Q13188); assay: Inhibition of recombinant full length human GST-tagged MST2 expressed in baculovirus expression system at 0.1 uM using serine/threonine-7 peptide as substrate incubated for 60 mins by Z'-LYTE assay relative to control
[8] = target: Serine/threonine-protein kinase NLK (Homo sapiens) (UniProt Q9UBE8); assay: Inhibition of tracer 178 binding to recombinant full length human GST-tagged NLK expressed by baculovirus expression system at 0.1 uM measured after 60 mins by Lanthascreen assay relative to control
[9] = target: Focal adhesion kinase 1 (Homo sapiens) (UniProt Q05397); assay: Inhibition of recombinant full length human GST-tagged FAK expressed in baculovirus expression system at 0.1 uM using tyrosine-7 peptide as substrate incubated for 60 mins by Z'-LYTE assay relative to control
[10] = target: Macrophage colony-stimulating factor 1 receptor (Homo sapiens) (UniProt P07333); assay: Inhibition of recombinant human His-tagged CSF1R catalytic domain (538 to 910 residues) expressed in Baculovirus expression system at 0.1 uM using tyrosine-1 peptide as substrate incubated for 60 mins by Z'-LYTE assay relative to control
[11] = target: Serine/threonine-protein kinase mTOR (Homo sapiens) (UniProt P42345); assay: Inhibition of recombinant human GST-tagged mTOR catalytic domain (1360 to 2549 residues) expressed in baculovirus expression system at 0.1 uM using serine/threonine-11 peptide as substrate incubated for 60 mins by Z'-LYTE assay relative to control
[12] = target: Casein kinase II subunit alpha (Homo sapiens) (UniProt P68400); assay: Inhibition of recombinant full length human His-tagged CK2 alpha 1 expressed in baculovirus expression system at 0.1 uM using serine/threonine-11 peptide as substrate incubated for 60 mins by Z'-LYTE assay relative to control
[13] = target: Homeodomain-interacting protein kinase 1 (Homo sapiens) (UniProt Q86Z02); assay: Inhibition of recombinant human GST-tagged HIPK1 catalytic domain (158 to 555 residues) expressed in baculovirus expression system at 0.1 uM using serine/threonine-9 peptide as substrate incubated for 60 mins by Z'-LYTE assay relative to control
[14] = target: Tyrosine-protein kinase ITK/TSK (Homo sapiens) (UniProt Q08881); assay: Inhibition of recombinant full length human GST-tagged ITK expressed in baculovirus expression system at 0.1 uM using tyrosine-1 peptide as substrate incubated for 60 mins by Z'-LYTE assay relative to control
[15] = target: Serine/threonine-protein kinase PLK1 (Homo sapiens) (UniProt P53350); assay: Inhibition of recombinant full length human His-tagged PLK1 expressed in baculovirus expression system at 0.1 uM using serine/threonine-16 peptide as substrate incubated for 60 mins by Z'-LYTE assay relative to control
[16] = target: Phosphatidylinositol 4,5-bisphosphate 3-kinase catalytic subunit gamma isoform (Homo sapiens) (UniProt P48736); assay: Inhibition of recombinant human GST-tagged PI3Kgamma catalytic domain (468 to 1203 residues) expressed in insect expression system at 0.1 uM using PI Lipid Kinase as substrate incubated for 60 mins by Adapta assay relative to control
[17] = target: Serine/threonine-protein kinase Nek1 (Homo sapiens) (UniProt Q96PY6); assay: Inhibition of recombinant full length human GST-tagged NEK1 catalytic domain (1 to 505 amino acids) expressed in baculovirus expression system at 0.1 uM using serine/threonine-7 peptide as substrate incubated for 60 mins by Z'-LYTE assay relative to control
Homo sapiens = organism: Homo sapiens; assay: Inhibition of recombinant human His-tagged PKA catalytic domain (1 to 351 residues) expressed in Escherichia coli expression system at 0.1 uM using serine/threonine-1 peptide as substrate incubated for 60 mins by Z'-LYTE assay relative to control
[18] = target: SRSF protein kinase 1 (Homo sapiens) (UniProt Q96SB4); assay: Inhibition of recombinant full length human His-tagged SRPK1 expressed in baculovirus expression system at 0.1 uM using serine/threonine-18 peptide as substrate incubated for 60 mins by Z'-LYTE assay relative to control
[19] = target: Mitogen-activated protein kinase kinase kinase 5 (Homo sapiens) (UniProt Q99683); assay: Inhibition of tracer 236 binding to recombinant full length human GST-tagged ASK1 expressed in baculovirus expression system at 0.1 uM measured after 60 mins by Lanthascreen assay relative to control
[20] = target: Ribosomal protein S6 kinase beta-1 (Homo sapiens) (UniProt P23443); assay: Inhibition of recombinant human GST-tagged p70S6K catalytic domain (1 to 421 residues) expressed in baculovirus expression system at 0.1 uM using serine/threonine-7 peptide as substrate incubated for 60 mins by Z'-LYTE assay relative to control
[21] = target: Calcium/calmodulin-dependent protein kinase type 1D (Homo sapiens) (UniProt Q8IU85); assay: Inhibition of recombinant full length human His-tagged CAMK1delta expressed in baculovirus expression system at 0.1 uM using serine/threonine-25 peptide as substrate incubated for 60 mins by Z'-LYTE assay relative to control
[22] = target: Protein kinase C theta type (Homo sapiens) (UniProt Q04759); assay: Inhibition of recombinant full length human His-tagged PKCtheta expressed in baculovirus expression system at 0.1 uM using serine/threonine-7 peptide as substrate incubated for 60 mins by Z'-LYTE assay relative to control
Sequence of Protein kinase C theta type (Homo sapiens) (Q04759 whole entry, looked up): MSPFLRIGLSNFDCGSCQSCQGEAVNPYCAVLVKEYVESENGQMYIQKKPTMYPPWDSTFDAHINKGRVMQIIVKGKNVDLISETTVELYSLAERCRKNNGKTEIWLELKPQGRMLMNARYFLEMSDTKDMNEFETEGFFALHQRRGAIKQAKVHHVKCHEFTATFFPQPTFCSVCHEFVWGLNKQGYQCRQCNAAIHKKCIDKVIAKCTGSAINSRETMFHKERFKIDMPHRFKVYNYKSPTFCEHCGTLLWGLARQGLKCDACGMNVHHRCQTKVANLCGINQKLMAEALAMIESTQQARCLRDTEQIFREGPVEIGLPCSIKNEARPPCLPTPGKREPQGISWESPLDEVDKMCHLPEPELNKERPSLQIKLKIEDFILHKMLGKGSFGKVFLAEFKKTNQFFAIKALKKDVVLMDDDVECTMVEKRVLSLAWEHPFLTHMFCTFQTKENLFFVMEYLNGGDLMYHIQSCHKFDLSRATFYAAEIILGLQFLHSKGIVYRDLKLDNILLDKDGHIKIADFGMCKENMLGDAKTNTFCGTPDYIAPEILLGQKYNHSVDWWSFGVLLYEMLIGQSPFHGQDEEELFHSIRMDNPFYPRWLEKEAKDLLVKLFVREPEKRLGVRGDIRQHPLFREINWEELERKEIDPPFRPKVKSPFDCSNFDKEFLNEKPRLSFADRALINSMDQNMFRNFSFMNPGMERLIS

Sequence of Mitogen-activated protein kinase 14 (Homo sapiens) (Q16539 whole entry, the tested form may be a part): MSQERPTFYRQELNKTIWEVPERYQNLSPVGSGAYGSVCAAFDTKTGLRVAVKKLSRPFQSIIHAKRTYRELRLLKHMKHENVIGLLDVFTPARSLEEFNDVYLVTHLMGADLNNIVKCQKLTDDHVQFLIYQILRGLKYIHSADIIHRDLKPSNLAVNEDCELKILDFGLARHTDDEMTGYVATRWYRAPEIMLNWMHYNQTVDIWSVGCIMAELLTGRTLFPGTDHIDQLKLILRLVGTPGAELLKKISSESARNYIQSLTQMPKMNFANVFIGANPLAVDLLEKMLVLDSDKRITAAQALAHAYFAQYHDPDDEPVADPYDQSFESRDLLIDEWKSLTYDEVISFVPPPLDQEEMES
Sequence of Tyrosine-protein kinase ITK/TSK (Homo sapiens) (Q08881 whole entry): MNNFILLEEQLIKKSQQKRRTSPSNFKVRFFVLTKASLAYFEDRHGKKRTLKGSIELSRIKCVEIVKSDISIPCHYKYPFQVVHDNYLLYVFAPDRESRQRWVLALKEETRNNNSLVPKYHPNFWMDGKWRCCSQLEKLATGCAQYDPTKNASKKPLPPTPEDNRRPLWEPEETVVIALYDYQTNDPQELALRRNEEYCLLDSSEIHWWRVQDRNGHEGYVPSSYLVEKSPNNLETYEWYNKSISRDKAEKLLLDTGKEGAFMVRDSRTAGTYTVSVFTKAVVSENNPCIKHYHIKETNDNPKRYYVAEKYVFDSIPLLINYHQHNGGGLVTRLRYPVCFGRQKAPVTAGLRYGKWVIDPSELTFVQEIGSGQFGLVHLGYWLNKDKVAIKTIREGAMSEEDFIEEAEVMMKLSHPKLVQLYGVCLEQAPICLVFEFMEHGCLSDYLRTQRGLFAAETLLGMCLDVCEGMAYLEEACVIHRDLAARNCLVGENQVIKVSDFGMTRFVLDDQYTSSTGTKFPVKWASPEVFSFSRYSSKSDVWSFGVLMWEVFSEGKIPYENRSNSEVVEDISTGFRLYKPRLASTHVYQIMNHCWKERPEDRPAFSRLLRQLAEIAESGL
Sequence of Activin receptor type-1B (Homo sapiens) (P36896 whole entry, the tested form may be a part): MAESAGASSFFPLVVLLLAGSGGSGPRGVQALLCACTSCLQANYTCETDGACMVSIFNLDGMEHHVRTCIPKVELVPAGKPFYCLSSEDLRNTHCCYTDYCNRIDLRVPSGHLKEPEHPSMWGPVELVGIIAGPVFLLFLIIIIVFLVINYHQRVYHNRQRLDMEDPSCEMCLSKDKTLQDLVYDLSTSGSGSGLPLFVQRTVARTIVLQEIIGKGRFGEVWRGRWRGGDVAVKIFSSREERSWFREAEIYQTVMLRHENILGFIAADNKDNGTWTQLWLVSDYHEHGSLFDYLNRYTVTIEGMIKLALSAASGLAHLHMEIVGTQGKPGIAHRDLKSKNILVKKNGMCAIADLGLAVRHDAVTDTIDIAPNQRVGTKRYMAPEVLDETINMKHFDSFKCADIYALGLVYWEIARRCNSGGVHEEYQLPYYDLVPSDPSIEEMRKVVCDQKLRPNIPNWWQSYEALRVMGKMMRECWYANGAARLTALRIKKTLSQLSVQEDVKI
Sequence of Casein kinase II subunit alpha (Homo sapiens) (P68400 whole entry, looked up, the tested form may be a part): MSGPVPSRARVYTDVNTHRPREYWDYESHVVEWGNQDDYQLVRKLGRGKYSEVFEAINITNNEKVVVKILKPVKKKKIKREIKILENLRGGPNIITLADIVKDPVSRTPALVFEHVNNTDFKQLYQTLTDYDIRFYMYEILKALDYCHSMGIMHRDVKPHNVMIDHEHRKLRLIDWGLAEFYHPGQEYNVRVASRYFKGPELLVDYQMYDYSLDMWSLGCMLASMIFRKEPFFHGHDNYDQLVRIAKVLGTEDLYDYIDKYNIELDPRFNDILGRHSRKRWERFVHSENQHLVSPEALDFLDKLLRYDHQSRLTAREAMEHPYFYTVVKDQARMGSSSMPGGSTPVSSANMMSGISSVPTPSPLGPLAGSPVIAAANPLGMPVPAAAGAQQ
Sequence of Serine/threonine-protein kinase PLK1 (Homo sapiens) (P53350 whole entry, the tested form may be a part, canonical isoform): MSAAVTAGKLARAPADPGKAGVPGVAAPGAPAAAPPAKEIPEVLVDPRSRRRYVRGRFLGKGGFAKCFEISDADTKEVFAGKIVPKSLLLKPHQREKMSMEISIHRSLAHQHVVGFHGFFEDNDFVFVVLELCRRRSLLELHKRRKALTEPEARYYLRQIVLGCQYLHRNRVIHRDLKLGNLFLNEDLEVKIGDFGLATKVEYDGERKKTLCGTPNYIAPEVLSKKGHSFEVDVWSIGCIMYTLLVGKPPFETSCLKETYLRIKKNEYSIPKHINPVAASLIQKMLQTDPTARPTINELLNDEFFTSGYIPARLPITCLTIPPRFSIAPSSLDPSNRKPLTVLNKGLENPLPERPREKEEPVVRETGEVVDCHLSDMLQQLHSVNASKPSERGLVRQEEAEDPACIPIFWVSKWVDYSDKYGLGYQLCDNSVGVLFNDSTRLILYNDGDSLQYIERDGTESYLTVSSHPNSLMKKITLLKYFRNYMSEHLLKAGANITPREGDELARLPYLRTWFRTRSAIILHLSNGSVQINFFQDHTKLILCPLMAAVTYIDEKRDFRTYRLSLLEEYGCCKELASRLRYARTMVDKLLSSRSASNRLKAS
Sequence of Phosphatidylinositol 4,5-bisphosphate 3-kinase catalytic subunit gamma isoform (Homo sapiens) (P48736 whole entry, looked up, the tested form may be a part, canonical isoform): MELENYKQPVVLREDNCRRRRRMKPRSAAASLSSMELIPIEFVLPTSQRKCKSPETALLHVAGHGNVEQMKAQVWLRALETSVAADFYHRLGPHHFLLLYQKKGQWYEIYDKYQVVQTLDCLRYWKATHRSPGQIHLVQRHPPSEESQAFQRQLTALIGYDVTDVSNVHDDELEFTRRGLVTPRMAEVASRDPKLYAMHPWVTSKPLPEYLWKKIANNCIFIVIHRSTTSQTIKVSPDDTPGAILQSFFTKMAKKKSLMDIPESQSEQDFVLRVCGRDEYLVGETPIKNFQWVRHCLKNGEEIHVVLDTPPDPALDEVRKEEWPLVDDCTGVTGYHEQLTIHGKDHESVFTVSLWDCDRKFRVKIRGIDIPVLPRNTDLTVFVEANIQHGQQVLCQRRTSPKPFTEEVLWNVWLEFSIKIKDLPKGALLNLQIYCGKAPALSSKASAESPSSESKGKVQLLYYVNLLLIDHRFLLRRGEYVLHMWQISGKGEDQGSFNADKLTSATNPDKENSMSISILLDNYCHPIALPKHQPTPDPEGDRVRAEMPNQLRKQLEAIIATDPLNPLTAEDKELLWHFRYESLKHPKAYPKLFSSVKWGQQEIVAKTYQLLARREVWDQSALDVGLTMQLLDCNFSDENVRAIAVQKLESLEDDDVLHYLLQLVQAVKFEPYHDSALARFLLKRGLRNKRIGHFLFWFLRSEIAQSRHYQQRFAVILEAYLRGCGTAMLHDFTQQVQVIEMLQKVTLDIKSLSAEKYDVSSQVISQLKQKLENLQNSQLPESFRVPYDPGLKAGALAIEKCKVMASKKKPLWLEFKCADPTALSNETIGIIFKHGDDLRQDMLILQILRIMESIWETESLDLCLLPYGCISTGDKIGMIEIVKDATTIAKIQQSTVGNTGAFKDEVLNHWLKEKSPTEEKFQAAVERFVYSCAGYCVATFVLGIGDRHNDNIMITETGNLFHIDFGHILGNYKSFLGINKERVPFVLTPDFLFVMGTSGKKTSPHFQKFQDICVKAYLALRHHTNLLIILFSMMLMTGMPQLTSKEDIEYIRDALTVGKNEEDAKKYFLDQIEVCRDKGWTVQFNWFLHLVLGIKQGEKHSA
Sequence of Ribosomal protein S6 kinase beta-1 (Homo sapiens) (P23443 whole entry, looked up, the tested form may be a part): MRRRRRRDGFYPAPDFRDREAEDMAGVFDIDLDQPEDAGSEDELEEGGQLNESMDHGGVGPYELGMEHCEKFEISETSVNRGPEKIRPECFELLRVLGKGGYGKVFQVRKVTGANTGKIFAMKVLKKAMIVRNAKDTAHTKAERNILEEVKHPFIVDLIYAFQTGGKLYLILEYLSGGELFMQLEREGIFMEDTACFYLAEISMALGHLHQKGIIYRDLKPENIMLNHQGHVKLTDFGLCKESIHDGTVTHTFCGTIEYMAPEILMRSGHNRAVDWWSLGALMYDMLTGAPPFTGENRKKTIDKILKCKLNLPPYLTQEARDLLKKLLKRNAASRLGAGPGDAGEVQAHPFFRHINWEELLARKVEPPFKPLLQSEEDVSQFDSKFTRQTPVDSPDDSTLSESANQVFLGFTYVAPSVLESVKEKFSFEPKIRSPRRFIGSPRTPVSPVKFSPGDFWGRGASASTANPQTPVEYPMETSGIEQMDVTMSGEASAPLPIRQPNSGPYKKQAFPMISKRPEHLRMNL

Structure (SMILES) | inhibition [1] [%] | inhibition [2] [%] | inhibition [3] [%] | inhibition [4] [%] | inhibition [5] [%] | inhibition [6] [%] | inhibition [7] [%] | inhibition [8] [%] | inhibition [9] [%] | inhibition [10] [%] | inhibition [11] [%] | inhibition [12] [%] | inhibition [13] [%] | inhibition [14] [%] | inhibition [15] [%] | inhibition [16] [%] | inhibition [17] [%] | inhibition (Homo sapiens) [%] | inhibition [18] [%] | inhibition [19] [%] | further results
CCN1CC2(C1)CN(c1ccc(Nc3ncc(F)c(-c4cnn5c4[C@H](C)CCCC5)n3)nc1)C2 | 58.5 | 1.5 | 3 | 8 | 3 | -4 | 4 | 22.5 | 19.5 | 88 | 2 | 0.5 | 4.5 | 6 | 2 | 2 | 0 | 4 | 4.5 | 7 | inhibition [20]: 6%; inhibition [21]: 13.5%; inhibition [22]: 20.5%
CCN1CCN(Cc2ccc(Nc3ncc(F)c(-c4cc(F)c5nc(C)n(C(C)C)c5c4)n3)nc2)CC1 [ABEMACICLIB] | 19.5 | 0 | -1 | 0.5 | 4 | -2 | 13 | 2.2 | 15.5 | 41.4 | 9.5 | 31.5 | 78.5 | 0.5 | 8.5 | -6.3 | 14 | 5 | 6 | 4.3 | inhibition [20]: 5%; inhibition [21]: 14%; inhibition [22]: 21.5%
